Assay results from patent publication US20250357519A1, “APPLICATIONS OF O2-INSENSITIVE FORMATE DEHYDROGENASE” (UNIVERSITY OF MARYLAND, BALTIMORE, priority 2022, published 2025).

What was measured:
[1] = biological target: T1, Desulfovibrio vulgaris Hildenborough (DvH) FDH2, recombinant Strep-tag II-tagged (FDH2^Rec), large subunit DVU2482 SEQ ID NO: 31, small subunit DVU2481 SEQ ID N (Nitratidesulfovibrio vulgaris, UniProt Q728X0); test: Inhibition of PES/DCPIP reduction by DvH-FDH2; type: biochemical; set-up: some rows (FDH2^WT, da Silva et al.) are the native enzyme; conditions: anaerobic and aerobic
T1 sequence (Q728X0 36-1003): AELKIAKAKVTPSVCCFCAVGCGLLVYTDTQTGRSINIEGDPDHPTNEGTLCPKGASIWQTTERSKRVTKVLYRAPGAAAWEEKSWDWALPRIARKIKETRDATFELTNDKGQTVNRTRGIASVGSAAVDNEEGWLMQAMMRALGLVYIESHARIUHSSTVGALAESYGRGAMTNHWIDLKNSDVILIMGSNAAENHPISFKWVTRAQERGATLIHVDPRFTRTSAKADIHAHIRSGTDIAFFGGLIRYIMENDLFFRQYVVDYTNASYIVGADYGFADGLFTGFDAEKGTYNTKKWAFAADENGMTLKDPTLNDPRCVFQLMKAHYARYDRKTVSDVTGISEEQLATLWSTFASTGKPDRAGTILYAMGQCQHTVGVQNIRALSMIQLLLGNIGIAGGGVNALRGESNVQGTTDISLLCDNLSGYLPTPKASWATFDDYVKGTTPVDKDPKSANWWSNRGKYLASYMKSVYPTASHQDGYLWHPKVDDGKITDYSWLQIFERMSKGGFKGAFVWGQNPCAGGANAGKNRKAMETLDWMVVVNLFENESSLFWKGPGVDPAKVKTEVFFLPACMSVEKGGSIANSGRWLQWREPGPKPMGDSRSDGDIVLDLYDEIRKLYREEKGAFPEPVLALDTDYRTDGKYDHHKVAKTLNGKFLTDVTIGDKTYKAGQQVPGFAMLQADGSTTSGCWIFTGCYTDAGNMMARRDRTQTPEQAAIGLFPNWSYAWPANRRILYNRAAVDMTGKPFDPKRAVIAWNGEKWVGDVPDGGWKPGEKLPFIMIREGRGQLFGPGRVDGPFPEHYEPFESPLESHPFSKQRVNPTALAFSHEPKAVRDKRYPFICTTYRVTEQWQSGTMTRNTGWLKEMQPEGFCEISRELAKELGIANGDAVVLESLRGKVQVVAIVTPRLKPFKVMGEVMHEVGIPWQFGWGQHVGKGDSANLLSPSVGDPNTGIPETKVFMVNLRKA
T1 sequence (Q728X1 1-260 partner): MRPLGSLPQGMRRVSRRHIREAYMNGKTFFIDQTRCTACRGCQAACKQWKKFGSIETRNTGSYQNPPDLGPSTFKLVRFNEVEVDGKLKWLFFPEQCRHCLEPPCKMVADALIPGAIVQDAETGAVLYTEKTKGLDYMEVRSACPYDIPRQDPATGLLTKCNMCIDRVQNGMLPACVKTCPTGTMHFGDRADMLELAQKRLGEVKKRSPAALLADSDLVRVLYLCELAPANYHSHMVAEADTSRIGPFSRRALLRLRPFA
Protocol: FIG. 22. Effect of sodium azide on PES/DCPIP reduction by DvH-FDH2. Panel (A) illustrates raw anaerobic kinetics, Panel (B) illustrates data from Panel (A) converted to reduced DCPIP concentration, Panel (C) illustrates 4-parameter sigmoidal fit of Panel (B), Panel (D) illustrates aerobic raw traces, Panel (E) illustrates data from Panel (D) converted to reduced DCPIP concentration, and Panel (F) illustrates a 4-parameter sigmoidal fit of […]. IC50 values were in the range of 0.8 mM.
FIG. 23. Effect of sodium nitrate on PES/DCPTP reduction by DvH-FDH2. Panel (A) illustrates raw anaerobic kinetics, Panel (B) illustrates data from Panel (A) converted to reduced DCPTP concentration, Panel (C) illustrates raw aerobic kinetics, and Panel (D) illustrates data from Panel (C) converted to reduced DCPTP concentration.
To test this hypothesis, activity assays were independently pursued with the PES/DCPIP pair. As has been observed for other dehydrogenases^91, PES served as an efficient electron acceptor for DvH-FDH2 (FIG. 19(A)). […]
In this dye-linked assay, PES (Em,7=+65 mV) serves as the primary electron acceptor. […] Assays were performed using a UV-2600i spectrophotometer (Shimadzu Life Sciences) equipped with T2 Peltier/stirrer accessory (Quantum) and monitored at 600 nm. […]

DvH-FDH2 = DvH-FDH2 (Nitratidesulfovibrio vulgaris (Desulfovibrio vulgaris Hildenborough), UniProt Q728X0); type: biochemical

Structure (SMILES): O=[N+]([O-])[O-].[Na+] [nitrate, sodium nitrate]
- inhibition relative to azide [1]: far less effective
- Inhibition of DvH-FDH2 compared with azide (DvH-FDH2): far less effective
